Source: patent EP4813989A1, “CRYSTAL, PHARMACEUTICAL COMPOSITION, PREPARATION METHOD THEREFOR, AND USE THEREOF” (TYK Medicines, Inc., priority 2023, dated 2025)

Tests used:
Assay type in all cases: physicochemical
[1] = High-humidity test, related substances by HPLC; conditions: 90%RH±5%RH; for Impurity content RRT0.55 / Impurity content RRT0.66 / Impurity content RRT0.71 / Impurity content RRT0.94 / Impurity content RRT1.02 / Impurity content RRT1.06 / Impurity content RRT1.08 / Impurity content RRT1.15 / Total impurities: open
Excerpt: An investigation method for the high-humidity test can be seen in Table 12 below.
Results of related substances in each crystal form under the high-humidity condition (90%RH±5%RH) can be seen in Table 16.
HPLC detection results of related substances under the high-humidity condition can be seen as follows: Table 16

[2] = Light exposure test, related substances by HPLC; conditions: for Impurity content RRT0.55 / Impurity content RRT0.66 / Impurity content RRT0.71 / Impurity content RRT0.94 / Impurity content RRT1.02 / Impurity content RRT1.06 / Impurity content RRT1.08 / Impurity content RRT1.15 / Total impurities: 4500lx±500lx, open
Excerpt: An investigation method for the light exposure test can be seen in Table 13 below.
Results of related substances in each crystal form under the light exposure condition (4500lx±500lx) can be seen in Table 17.
HPLC detection results of related substances under the light exposure condition can be seen as follows: Table 17

[3] = Flowability test (angle of repose)
Description: A flowability determination method was as follows: an angle of repose was determined by using a device composed of 2 to 3 funnels connected in series in a staggered manner, and drug powder was slowly and uniformly passed through the funnels onto a stationary base with a diameter d, so as to form a symmetric powder pile with a single layer of powder at the bottom. During the formation of the powder pile, a height of the funnels was maintained within 2-4 cm from a top of the powder pile, a height h of the cone was determined, and the angle of repose was calculated as tanθ=h/(d/2).

[4] = Accelerated test, related substances by HPLC; conditions: 40°C±2°C, 75%RH±5%RH; for Impurity content RRT0.55 / Impurity content RRT0.66 / Impurity content RRT0.71 / Impurity content RRT0.94 / Impurity content RRT1.02 / Impurity content RRT1.06 / Impurity content RRT1.08 / Impurity content RRT1.15 / Total impurities: open
Description: An investigation method for the accelerated test can be seen in Table 14 below.
Change results of related substances in each crystal form under the accelerated condition (40°C±2°C, 75%RH±5%RH) can be seen in Table 18.
HPLC detection results of related substances under the accelerated condition can be seen as follows: Table 18

[5] = Dynamic vapor sorption (DVS) hygroscopicity
Description: Dynamic vapor sorption (DVS) was used to investigate hygroscopicities of an active pharmaceutical ingredient in different crystal forms.
Determination method: • instrument: dynamic vapor sorption analyzer; temperature: 25°C; protective gas and flow rate: N2, 200 mL/min; • dm/dt: 0.002%/min; RH range: 0%RH-100%RH; cycle: 1 full cycle.

## C[C@@H](Nc1ccn2ncc(C3=NOC(C)(C)N3)c2n1)c1cc(F)cc(F)c1F [crystal form A]
[1]; 32 days
  Increase of impurity RRT1.02 content: no essential changes
  Increase of impurity RRT1.08 content: no essential change
  Increase of total impurities: 0.03%
  Impurity content RRT0.55: 0.03%
  Impurity content RRT0.66: 0.18%
  Impurity content RRT0.71: 0.16%
  Impurity content RRT0.94: 0.05%
  Impurity content RRT1.02: 0.26%
  Impurity content RRT1.06: 0.06%
  Impurity content RRT1.08: 0.18%
  Impurity content RRT1.15: 0.05%
  Total impurities: 0.98%
[1]; 0 day
  Impurity content RRT0.55: 0.03%
  Impurity content RRT0.66: 0.18%
  Impurity content RRT0.71: 0.15%
  Impurity content RRT0.94: 0.04%
  Impurity content RRT1.02: 0.28%
  Impurity content RRT1.06: 0.07%
  Impurity content RRT1.08: 0.16%
  Impurity content RRT1.15: 0.03%
  Total impurities: 0.95%
[1]; 5 days
  Impurity content RRT0.55: 0.03%
  Impurity content RRT0.66: 0.20%
  Impurity content RRT0.71: 0.16%
  Impurity content RRT0.94: 0.03%
  Impurity content RRT1.02: 0.31%
  Impurity content RRT1.06: 0.09%
  Impurity content RRT1.08: 0.21%
  Impurity content RRT1.15: 0.04%
  Total impurities: 1.07%
[1]; 11 days
  Impurity content RRT0.55: 0.03%
  Impurity content RRT0.66: 0.20%
  Impurity content RRT0.71: 0.16%
  Impurity content RRT0.94: 0.03%
  Impurity content RRT1.02: 0.30%
  Impurity content RRT1.06: 0.08%
  Impurity content RRT1.08: 0.21%
  Impurity content RRT1.15: 0.03%
  Total impurities: 1.05%
[2]; 4500 lx±500 lx, 32 days
  Increase of impurity RRT0.66 content: 0.09%
  Increase of impurity RRT0.71 content: not increased
  Increase of impurity RRT1.02 content: not increased
  Increase of impurity RRT1.08 content: 0.09%
  Increase of total impurities: 0.13%
[2]; 0 day
  Impurity content RRT0.55: 0.03%
  Impurity content RRT0.66: 0.18%
  Impurity content RRT0.71: 0.15%
  Impurity content RRT0.94: 0.04%
  Impurity content RRT1.02: 0.28%
  Impurity content RRT1.06: 0.07%
  Impurity content RRT1.08: 0.16%
  Impurity content RRT1.15: 0.03%
  Total impurities: 0.95%
[2]; 5 days
  Impurity content RRT0.55: 0.03%
  Impurity content RRT0.66: 0.21%
  Impurity content RRT0.71: 0.14%
  Impurity content RRT0.94: 0.04%
  Impurity content RRT1.02: 0.30%
  Impurity content RRT1.06: 0.08%
  Impurity content RRT1.08: 0.20%
  Impurity content RRT1.15: 0.04%
  Total impurities: 1.03%
[2]; 11 days
  Impurity content RRT0.55: 0.03%
  Impurity content RRT0.66: 0.22%
  Impurity content RRT0.71: 0.15%
  Impurity content RRT0.94: 0.03%
  Impurity content RRT1.02: 0.31%
  Impurity content RRT1.06: 0.07%
  Impurity content RRT1.08: 0.22%
  Impurity content RRT1.15: 0.04%
  Total impurities: 1.08%
[2]; 32 days
  Impurity content RRT0.55: 0.03%
  Impurity content RRT0.66: 0.27%
  Impurity content RRT0.71: 0.10%
  Impurity content RRT0.94: 0.07%
  Impurity content RRT1.02: 0.28%
  Impurity content RRT1.06: 0.06%
  Impurity content RRT1.08: 0.25%
  Impurity content RRT1.15: 0.02%
  Total impurities: 1.08%
[3]
  angle of repose: approximately 32.7 °
[4]; 32 days
  Increase of impurity RRT1.08 content: 0.04%
  Impurity content RRT0.55: 0.04%
  Impurity content RRT0.66: 0.20%
  Impurity content RRT0.71: 0.16%
  Impurity content RRT0.94: 0.04%
  Impurity content RRT1.02: 0.27%
  Impurity content RRT1.06: 0.07%
  Impurity content RRT1.08: 0.20%
  Impurity content RRT1.15: 0.06%
  Total impurities: 1.03%
[4]; 0 day
  Impurity content RRT0.55: 0.03%
  Impurity content RRT0.66: 0.18%
  Impurity content RRT0.71: 0.15%
  Impurity content RRT0.94: 0.04%
  Impurity content RRT1.02: 0.28%
  Impurity content RRT1.06: 0.07%
  Impurity content RRT1.08: 0.16%
  Impurity content RRT1.15: 0.03%
  Total impurities: 0.95%
[4]; 5 days
  Impurity content RRT0.55: 0.03%
  Impurity content RRT0.66: 0.20%
  Impurity content RRT0.71: 0.16%
  Impurity content RRT0.94: 0.04%
  Impurity content RRT1.02: 0.30%
  Impurity content RRT1.06: 0.08%
  Impurity content RRT1.08: 0.18%
  Impurity content RRT1.15: 0.03%
  Total impurities: 1.02%
[4]; 11 days
  Impurity content RRT0.55: 0.04%
  Impurity content RRT0.66: 0.20%
  Impurity content RRT0.71: 0.17%
  Impurity content RRT0.94: 0.03%
  Impurity content RRT1.02: 0.33%
  Impurity content RRT1.06: 0.09%
  Impurity content RRT1.08: 0.25%
  Impurity content RRT1.15: 0.04%
  Total impurities: 1.14%
[5]
  Hygroscopicity (conclusion): did not have hygroscopicity under conventional conditions
[5]; at 0% humidity, 25°C
  DVS weight loss: 3-4%
[5]; humidity 90% or more
  DVS hygroscopicity: obvious hygroscopicity
[5]; humidity increased from 0% to 20%
  DVS weight gain: significant weight gain
[5]; humidity increased from 20% to 80%
  DVS hygroscopic weight gain: almost no hygroscopic weight gain
